The values that follow come from patent publication US20140348748A1, “BETA-AMYLOID IMAGING AGENTS, METHODS OF MANUFACTURE, AND METHODS OF USE THEREOF” (priority 2011, published 2014).

The term Ki denotes a measure of affinity in units of concentration, obtained from inhibition or displacement.

The conditions of series [1]: after intravenous injection into rodent or monkey; cited from earlier work.
The nature of series [2]: Evaluation of radioligands in monkey in vivo with PET. Further details: species or system rhesus monkey. As to conditions: for brain uptake and washout (PET time-activity curves): intravenous, 18F-labelled. As to the method: A male rhesus monkey (15 kg) was initially immobilized with ketamine (15 mg/kg) and subsequently anesthetized with isoflurane (1.5%) for the duration of the experiment. The monkey was placed prone in the PET camera (HRRT, Siemens/CPS, Knoxyille, Tenn., USA). A fixation device was used to secure the monkey's head during scanning. A urinary catheter was inserted and clamped so that the activity overlaying the bladder represented the total urinary excretion during the scan. Electrocardiogram, body temperature, heart and respiration rates were measured throughout the experiment. Body temperature was controlled and monitored by a forced-air temperature management unit (Bair Hugger Model 505; Arizant Healthcare Inc.; MN, USA). The scanner consisted of eight flat panel detectors with a transaxial and axial coverage of 31.2 cm and 25.2 cm, respectively. The scanner is also equipped with dual-layered phoswich detector allowing depth-of-interaction. Dynamic PET scans were acquired in 64-bit list mode format, following the intravenous administration of Compound 1.6 (2.9 mCi). The scan lasted for 2 hours containing 33 frames with duration ranging from 30 seconds to 5 minutes. Data were reconstructed into a 256×256×207 image matrix (voxel size 1.21×1.21×1.23 mm), using a 3D list mode OSEM algorithm. The reconstructed image resolution was 2.5 mm. Transmission scan was acquired with a rotating ^137Cs point source for 6 minutes and used to correct for attenuation. A model-based scatter correction was applied. Tomographic images were analyzed with PMOD 2.6. Time activity curves (FIGS. 4-6) were calculated in % SUV for volume of interest (VOIs), defined by co-registration with MRI (see below), and compared for uptake and washout between different brain regions.
Co-registration of PET Data with MRI. All frames of the original reconstructed PET data were summed and then co-registered to a T1-weighted magnetic resonance (MR) image acquired separately on a 1.5 T Signa MR scanner (GE Medical Systems) with image analysis software MEDx (Sensor Systems Inc.; Sterling, Va., U.S.A.). The summed PET image was fused with the co-registered MR image with an image fusion tool in PMOD. Several VOIs for the source organs were then manually defined on this fused image with anatomical structures identified on the MR image.

Series [3] has as its target beta-amyloid plaques in AD brain tissue (Homo sapiens, UniProt P05067). Put plainly: In vitro binding assay: competitive displacement of [3H]6-OH-BTA-1 in AD brain homogenate. The settings on record: for Ki: [3H]6-OH-BTA-1 as reference radioligand, AD brain tissue. As to the method:
AD brain tissue was homogenized at 1:500 in PBS, and 800 μL suspension was used in each tube. [^3H]6-OH-BTA-1 with a concentration of 1 mCi/mL stock solution was diluted using ethanol to give an intermediate solution of 1 μCi/100 μL, which was further diluted using PBS to result in a dilute stock solution of 2.7×10^−2 μCi/100 μL, and 100 μL was used in each tube (2 vials with 100 μL of [^3H]6-OH-BTA-1 each and scintillation fluid as references). Cold 6-OH-BTA-1 or other displacer was dissolved in ethanol to result in a stock solution of 1×10^−3 M, which was further diluted using PBS or ethanol to result in solutions with concentrations ranging from 1×10^−5 to 10^−10 M, and 100 μL was used in each tube. After assembly, the tubes were vortexed, and incubated for 3 hrs at room temperature. After separation using a cell harvester, the filter paper (GF/B filter paper pretreated with 0.5% polyimine solution) was washed with 10% ethanol in PBS (3×3 mL). The filters were placed into 20 mL glass vials and 10 mL scintillation fluid each was added. After overnight incubation, the samples were counted. The data were analyzed using GraphPad Prism 4 or KaleidaGraph 3.6. […]
Some lipophilic ligands required ethanol in the medium to increase their solubility and to effect displacement of reference radioligand. […] This displacement curve was also analyzed using a homologous displacement mathematical model to extract the Bmax of the amyloid plaques. The measured Bmax is linear with the amount of amyloid used in the experiment. The ratio between Bmax and the amount of Aβ1-42 monomer measured by ELISA is about 1:2, somewhat less than that reported previously. […]
In this table, Ki is a measure (in nM units) of the binding affinity of the compound toward beta-amyloid plaques in AD brain tissue, measured through a competitive radioligand displacement in vitro assay using [^3H]6-OH-BTA-1 as the reference radioligand. The lipophilicity of the compound is represented by c Log D7.4 which is calculated through a software package (ACD/Log D version 8.0) at pH=7.4, a close mimic of physiological conditions. […]
For orientation: In a radioligand displacement assay an active substance lowers the binding of a labelled ligand.

In series [4] the test system is amyloid plaques in AD brain tissue slides. Put plainly: Autoradiography on post mortem human brain tissue slides. In kind it is binding. The settings on record: for binding in AD brain tissue slides (autoradiography): amyloid-loaded gray matter region; for radioactivity on healthy brain tissue (autoradiography): normal control brain tissue slides. As for the experimental part: Coronal sections of cerebrum from a confirmed case of AD (person, postmortem interval (PMI) 47.5 hours) and a normal control (person, PMI 28.5 hours) were frozen rapidly in an equal mixture of dry ice and isopentane, sealed in a plastic bag and stored at −76° C. before sectioning. Frozen blocks of the medial temporal lobe (hippocampal region) were sectioned at a thickness of 14 μm, mounted on gelatin-coated glass slides, dried and stored under desiccant at −76° C. Before use, slide-mounted tissue sections were removed from the freezer, thawed at room temperature for 20 min, and air-dried. Compounds 1.6, 1.5 and 1.4 (1.0 mg) were dissolved in DMSO (3.529 mL) resulting in a stock solution of 1 mM, which was then further diluted with DMSO to 0.1 mM and then diluted with PBS to 1 μM. The AD tissue and normal tissue slides were pretreated with either a stock solution of Compounds 1.6, 1.5, and 1.4 or PBS for 20 min at room temperature. All slides were incubated for 20 min at room temperature in [^11C]PIB formulation solution (0.3 mCi). They were then dipped in ethanol for 5 min. The slides were dried on a hot plate with a stream of cold air and placed in a cassette with the exposed sides facing up. The phosphor imaging plate was held with the blue side down. The entire cassette was placed in the dark at room temperature overnight for ^11C-labeling. Digital autoradiography was acquired using a FUJI BAS 5000 phosphorimager (FUJI, Tokyo, Japan) with a resolution of 25 μm.

beta-amyloid plaques in AD brain tissue, sequence (P05067 672-711 limits assumed): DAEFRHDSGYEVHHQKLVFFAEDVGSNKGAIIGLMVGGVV

With `CN(CCF)c1ccc(-c2cn3cc(I)ccc3n2)cc1` [[^18F]FEM-IMPY, N-(2-fluoroethyl)-4-(6-iodo-H-imidazo[1,2-a]pyridin-2-yl)-N-methylbenzeneamine], the “SUV (standardized uptake value) of radioactivity in brain” value in series [1] is recorded as “about 160 % I.D. kg/g”.

Regarding `CNc1ccc(-c2nc3ccc(OC)cc3s2)nc1F` [Compound 1.5, 2-Fluoro-6-(6-methoxybenzo[d]thiazol-2-yl)-N-methylpyridin-3-amine], the “brain uptake and washout (PET time-activity curves)” value in series [2] (normal male rhesus monkey) is “entered the brain very well and washed out fast”. For the same molecule, the Ki in series [3] was 10 nM. In series [4], the “binding in AD brain tissue slides (autoradiography)” value was “clear displaceable binding” and the “radioactivity on healthy brain tissue (autoradiography)” value was “no radioactivity was observed”.

`CN(CCC[18F])c1ccc(-c2cn3cc(I)ccc3n2)cc1` [[^18F]FPM-IMPY]: the “SUV (standardized uptake value) of radioactivity in brain” value in series [1] is “about 160 % I.D. kg/g”.

As to `CNc1ccc(-c2nc3ccc(O)cc3s2)nc1F` [Compound 1.6, 2-(6-Fluoro-5-(methylamino)pyridin-2-yl)benzo[d]thiazol-6-ol], in series [2] (normal male rhesus monkey, PET), the “pharmacokinetics compared among the three radioligands” value is listed as “most promising pharmacokinetics”. In addition, in series [2] (normal male rhesus monkey), the “brain uptake and washout (PET time-activity curves)” value is “entered the brain very well and washed out fast”. In addition, in series [2] (normal monkey, PET), the “time to uniform distribution of radioactivity after injection” value is reported as “less than 1 hour”. Besides, the Ki in series [3] amounted to 20 nM. For the same molecule, in series [4], the “binding in AD brain tissue slides (autoradiography)” value is reported as “clear displaceable binding” and the “radioactivity on healthy brain tissue (autoradiography)” value was “no radioactivity was observed”. Further, the “binding with amyloid plaques from autoradiography” value in series [4] (summary statement) was “specific binding”.

In the case of `CNc1ccc(-c2nc3ccc(O)cc3s2)cc1` [Compound 6-OH-BTA-1, 2-[4-(methylamino)phenyl]-6-hydroxybenzothiazole, reference compound], the “displacement of reference radioligand” value in series [3] ([3H]6-OH-BTA-1 displaced by non-radioactive ligand, isolated amyloid plaques) was > 95%.
